Reference: patent US20120252827A1, “COMBINATION OF THERAPY COMPRISING ZD6474 AND A TAXANE” (priority 2001, published 2012)

Test system: GEO human colon cancer xenografts
Assay: GEO human colon cancer xenograft model: ZD6474 dosed intraperitoneally
Type: in vivo, BALB/c athymic (nu+/nu+) mice
Conditions: GEO xenografts s.c. in mice; for Average time (days) from day 28 to reach an average tumour volume of 2 cm^3 (approximately 10% of mouse body weight): paclitaxel 400 μg/mouse i.p., ZD6474 100 mg/kg/day i.p.; for Average tumour volume on day 28 after tumour cell injection: treatment from day 7, paclitaxel 400 μg/mouse i.p. days 7, 14, 21, 28, ZD6474 100 mg/kg/day i.p. days 7-11, 14-18, 21-25, 28-32
Method: a) Geo Human Colon Cancer Xenograft Model: ZD6474 Dosed Intraperitoneally
Female BALB/c athymic (nu+/nu+) mice 4-6 weeks of age were injected subcutaneously (s.c.) with GEO human colon cancer cells (10^7 cells resuspended in 200 μl Matrigel) on day 0. Treatment was initiated on day 7 after s.c. implantation of GEO cells when the average tumour volume was 0.25 (+0.05) cm^3. 10 mice per group were treated either with intraperitoneal (i.p.) paclitaxel (400 μg/mouse) on days 7, 14, 21 and 28, or with ZD6474 (100 mg/kg/day i.p. suspended in a 1% (v/v) solution of polyoxyethylene (20) sorbitan mono-oleate in deionised water) on days 7-11, 14-18, 21-25 and 28-32, or with a combination of both agents. In the case of combination treatments, where mice received both agents on the same day, paclitaxel was given 10-15 minutes before ZD6474. Tumour size was measured using the formula π/6×larger diameter×(smaller diameter)^2.
The average tumour volume on day 28 following tumour cell injection in control mice, 1.95 (+0.15) cm^3, was approximately 10% of nude mouse body weight and mice in this group were sacrificed at this time. […] Statistical evaluations of time to reach a tumour volume of 2 cm^3 has been done using the Mantel-Cox logrank test with the following results: ZD6474 (100 mg/kg) versus control (p=0.001); paclitaxel+ZD6474 (100 mg/kg) versus control (p=0.0001); paclitaxel+ZD6474 (100 mg/kg) versus paclitaxel (p=0.001); paclitaxel+ZD6474 (100 mg/kg) versus ZD6474 (100 mg/kg) (p=0.01).

SMILES | Average time (days) from day 28 to reach an average tumour volume of 2 cm^3 (approximately 10% of mouse body weight) | Average tumour volume on day 28 after tumour cell injection
CC(=O)O[C@H]1C(=O)[C@@]2(C)[C@H]([C@H](OC(=O)c3ccccc3)[C@]3(O)C[C@H](OC(=O)[C@H](O)[C@@H](NC(=O)c4ccccc4)c4ccccc4)C(C)=C1C3(C)C)[C@]1(OC(C)=O)CO[C@@H]1C[C@@H]2O [Paclitaxel, paclitaxel] | 14 (±3) days | 0.95 (±0.1) cm^3
COc1cc2c(Nc3ccc(Br)cc3F)ncnc2cc1OCC1CCN(C)CC1 [ZD6474, 4-(4-bromo-2-fluoroanilino)-6-methoxy-7-(1-methylpiperidin-4-ylmethoxy)quinazoline] | 29 (±2) days | 0.1 (±0.05) cm^3
